In the NIST ThermoML archive (doi:10.1021/acs.jced.6b00169):
± gives the expanded uncertainty stated by the source.

Conditions: Fluid (supercritical or subcritical phases), isochoric method

## FC(F)(F)/C=C\C(F)(F)F [(Z)-1,1,1,4,4,4-hexafluorobut-2-ene]
444.5 K, 2907.5 kPa
  mass density: 532.1 ± 47 kg/m3
444.5 K, 2918.3 kPa
  mass density: 589.2 ± 38 kg/m3
445.48 K, 2948.7 kPa
  mass density: 410.1 ± 66 kg/m3
445.48 K, 2955 kPa
  mass density: 451.8 ± 91 kg/m3
445.49 K, 2960.5 kPa
  mass density: 496.8 ± 50 kg/m3
445.49 K, 2967.6 kPa
  mass density: 556.1 ± 50 kg/m3
445.49 K, 2979 kPa
  mass density: 589.2 ± 26 kg/m3
445.5 K, 2963.5 kPa
  mass density: 532.1 ± 47 kg/m3
446.47 K, 2992.8 kPa
  mass density: 410.1 ± 35 kg/m3
446.47 K, 3039.9 kPa
  mass density: 589.2 ± 18 kg/m3
446.48 K, 3003.8 kPa
  mass density: 451.8 ± 39 kg/m3
446.49 K, 3019.2 kPa
  mass density: 532.1 ± 31 kg/m3
446.49 K, 3024.7 kPa
  mass density: 556 ± 28 kg/m3
446.5 K, 3013.3 kPa
  mass density: 496.8 ± 42 kg/m3
447.47 K, 3036.6 kPa
  mass density: 410.1 ± 25 kg/m3
447.49 K, 3052.3 kPa
  mass density: 451.8 ± 27 kg/m3
447.49 K, 3075.5 kPa
  mass density: 532 ± 20 kg/m3
447.49 K, 3102.7 kPa
  mass density: 589.1 ± 15 kg/m3
447.5 K, 3083 kPa
  mass density: 556 ± 21 kg/m3
447.51 K, 3065.9 kPa
  mass density: 496.8 ± 29 kg/m3
448.47 K, 3080.1 kPa
  mass density: 410.1 ± 19 kg/m3
448.48 K, 3099.7 kPa
  mass density: 451.7 ± 20 kg/m3
448.49 K, 3131.1 kPa
  mass density: 532 ± 22 kg/m3
448.49 K, 3165.1 kPa
  mass density: 589.1 ± 12 kg/m3
448.5 K, 3117.9 kPa
  mass density: 496.7 ± 22 kg/m3
448.5 K, 3140.9 kPa
  mass density: 556 ± 14 kg/m3
449.46 K, 3123.1 kPa
  mass density: 410.1 ± 15 kg/m3
449.48 K, 3147.7 kPa
  mass density: 451.7 ± 17 kg/m3
449.49 K, 3187.7 kPa
  mass density: 532 ± 17 kg/m3
449.5 K, 3170.6 kPa
  mass density: 496.7 ± 17 kg/m3
449.5 K, 3200.1 kPa
  mass density: 556 ± 12 kg/m3
449.5 K, 3229.7 kPa
  mass density: 589.1 ± 10 kg/m3
450.46 K, 3166.1 kPa
  mass density: 410 ± 13 kg/m3
450.48 K, 3195.5 kPa
  mass density: 451.7 ± 14 kg/m3
450.5 K, 3223.3 kPa
  mass density: 496.7 ± 14 kg/m3
450.5 K, 3259.2 kPa
  mass density: 555.9 ± 10 kg/m3
450.5 K, 3293.6 kPa
  mass density: 589 ± 8.8 kg/m3
450.51 K, 3244.9 kPa
  mass density: 532 ± 14 kg/m3
451.47 K, 3209.5 kPa
  mass density: 410 ± 11 kg/m3
451.48 K, 3243 kPa
  mass density: 451.7 ± 12 kg/m3
451.49 K, 3357.7 kPa
  mass density: 589 ± 7.7 kg/m3
451.5 K, 3275.9 kPa
  mass density: 496.7 ± 12 kg/m3
451.5 K, 3318.3 kPa
  mass density: 555.9 ± 8.7 kg/m3
451.51 K, 3300.8 kPa
  mass density: 531.9 ± 12 kg/m3
452.47 K, 3252.2 kPa
  mass density: 410 ± 9.4 kg/m3
452.48 K, 3290.8 kPa
  mass density: 451.7 ± 10 kg/m3
452.49 K, 3328.2 kPa
  mass density: 496.6 ± 11 kg/m3
452.49 K, 3378.2 kPa
  mass density: 555.9 ± 7.9 kg/m3
452.49 K, 3422.9 kPa
  mass density: 589 ± 7 kg/m3
452.5 K, 3358.3 kPa
  mass density: 531.9 ± 10 kg/m3
453.47 K, 3294.8 kPa
  mass density: 410 ± 8.4 kg/m3
453.48 K, 3200.2 kPa
  mass density: 348.3 ± 5.1 kg/m3
453.49 K, 3338.4 kPa
  mass density: 451.6 ± 8.9 kg/m3
453.49 K, 3381.2 kPa
  mass density: 496.6 ± 9.3 kg/m3
453.49 K, 4021.4 kPa
  mass density: 734.4 ± 3.3 kg/m3
453.49 K, 9923.8 kPa
  mass density: 962.6 ± 3.7 kg/m3
453.5 K, 1586.1 kPa
  mass density: 87.6 ± 0.9 kg/m3
453.5 K, 2978.8 kPa
  mass density: 261.1 ± 3.2 kg/m3
453.5 K, 3415.5 kPa
  mass density: 531.9 ± 9 kg/m3
453.5 K, 3438.5 kPa
  mass density: 555.9 ± 7 kg/m3
453.5 K, 3477.4 kPa
  mass density: 589 ± 4.9 kg/m3
453.5 K, 3489.4 kPa
  mass density: 589 ± 6.2 kg/m3
453.5 K, 3654.8 kPa
  mass density: 659.5 ± 3.3 kg/m3
453.5 K, 4584 kPa
  mass density: 789.8 ± 3.2 kg/m3
453.5 K, 6552.2 kPa
  mass density: 883.1 ± 3.4 kg/m3
453.51 K, 2439 kPa
  mass density: 167 ± 2 kg/m3
453.51 K, 3355.4 kPa
  mass density: 473.8 ± 8.5 kg/m3
453.51 K, 3423.1 kPa
  mass density: 534.1 ± 8 kg/m3
453.52 K, 3308.4 kPa
  mass density: 416.3 ± 5.3 kg/m3
463.47 K, 3811.6 kPa
  mass density: 451.7 ± 4.3 kg/m3
463.48 K, 3548.1 kPa
  mass density: 348.1 ± 3.1 kg/m3
463.49 K, 5796.3 kPa
  mass density: 789.4 ± 3.2 kg/m3
463.5 K, 1644.5 kPa
  mass density: 87.5 ± 0.8 kg/m3
463.5 K, 3221.4 kPa
  mass density: 261 ± 1.9 kg/m3
463.5 K, 4145.4 kPa
  mass density: 588.7 ± 3.3 kg/m3
463.5 K, 4465.6 kPa
  mass density: 659.2 ± 3.1 kg/m3
463.5 K, 8195.5 kPa
  mass density: 882.7 ± 3.4 kg/m3
463.51 K, 2573 kPa
  mass density: 166.9 ± 1.1 kg/m3
463.51 K, 3856.7 kPa
  mass density: 473.6 ± 4 kg/m3
463.51 K, 4003.3 kPa
  mass density: 533.8 ± 4 kg/m3
463.52 K, 3741 kPa
  mass density: 416.1 ± 3.8 kg/m3
463.84 K, 5039.9 kPa
  mass density: 734 ± 3.1 kg/m3
473.46 K, 4282.9 kPa
  mass density: 451.5 ± 3 kg/m3
473.49 K, 3889.2 kPa
  mass density: 347.9 ± 2.3 kg/m3
473.49 K, 5297.9 kPa
  mass density: 658.9 ± 2.8 kg/m3
473.49 K, 6084.9 kPa
  mass density: 733.7 ± 3 kg/m3
473.49 K, 7031.2 kPa
  mass density: 789.1 ± 3.1 kg/m3
473.5 K, 1702.6 kPa
  mass density: 87.5 ± 0.8 kg/m3
473.5 K, 3458.3 kPa
  mass density: 260.9 ± 1.7 kg/m3
473.5 K, 4828.4 kPa
  mass density: 588.4 ± 2.8 kg/m3
473.5 K, 9855 kPa
  mass density: 882.3 ± 3.4 kg/m3
473.51 K, 2705 kPa
  mass density: 166.8 ± 1.4 kg/m3
473.51 K, 4169.1 kPa
  mass density: 416 ± 3 kg/m3
473.51 K, 4592.6 kPa
  mass density: 533.6 ± 3 kg/m3
473.52 K, 4360 kPa
  mass density: 473.3 ± 3 kg/m3
483.45 K, 4753 kPa
  mass density: 451.3 ± 2.6 kg/m3
483.48 K, 8280.1 kPa
  mass density: 788.7 ± 3.1 kg/m3
483.49 K, 4225.7 kPa
  mass density: 347.8 ± 2 kg/m3
483.49 K, 6143.2 kPa
  mass density: 658.6 ± 2.7 kg/m3
483.5 K, 1760.4 kPa
  mass density: 87.5 ± 0.8 kg/m3
483.5 K, 3690.6 kPa
  mass density: 260.8 ± 1.5 kg/m3
483.5 K, 4863.2 kPa
  mass density: 473.1 ± 2.3 kg/m3
483.5 K, 5186.3 kPa
  mass density: 533.3 ± 2.6 kg/m3
483.5 K, 5522.5 kPa
  mass density: 588.1 ± 2.6 kg/m3
483.51 K, 2834.3 kPa
  mass density: 166.8 ± 1 kg/m3
483.51 K, 4596.7 kPa
  mass density: 415.8 ± 2.4 kg/m3
483.51 K, 7145.4 kPa
  mass density: 733.3 ± 2.9 kg/m3
493.49 K, 4559.3 kPa
  mass density: 347.6 ± 1.9 kg/m3
493.5 K, 3920 kPa
  mass density: 260.6 ± 1.4 kg/m3
493.5 K, 6223.9 kPa
  mass density: 587.8 ± 2.6 kg/m3
493.51 K, 1817.2 kPa
  mass density: 87.4 ± 0.7 kg/m3
493.51 K, 2962 kPa
  mass density: 166.7 ± 1 kg/m3
493.51 K, 5368 kPa
  mass density: 472.9 ± 2.3 kg/m3
503.5 K, 4890.2 kPa
  mass density: 347.4 ± 1.7 kg/m3
503.51 K, 6930.9 kPa
  mass density: 587.6 ± 2.5 kg/m3
